Laboratory results: PubChem BioAssay (NCI)
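In this assay, cells in 96-well plates receive the compound at five concentrations for 48 hours. Endpoints are linearly interpolated between the surrounding concentrations. Definition used: TGI = concentration required for complete inhibition of growth.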

What was measured:
Experiment in all cases: growth of human tumour cells (NCI), 48 h
786-0 renal = test system: 786-0 renal
A498 renal = test system: A498 renal
A549 NSCLC = test system: A549 NSCLC
ACHN renal = test system: ACHN renal
CCRF-CEM leukemia = test system: CCRF-CEM leukemia
COLO 205 colon = test system: COLO 205 colon
DU-145 prostate = test system: DU-145 prostate
EKVX NSCLC = test system: EKVX NSCLC
HCC-2998 colon = test system: HCC-2998 colon
HCT-116 colon = test system: HCT-116 colon
HCT-15 colon = test system: HCT-15 colon
HL-60(TB) leukemia = test system: HL-60(TB) leukemia
HOP-62 NSCLC = test system: HOP-62 NSCLC
HS 578T breast = test system: HS 578T breast
HT29 colon = test system: HT29 colon
IGROV1 ovarian = test system: IGROV1 ovarian
K-562 leukemia = test system: K-562 leukemia
KM12 colon = test system: KM12 colon
LOX IMVI melanoma = test system: LOX IMVI melanoma
M14 melanoma = test system: M14 melanoma
MCF7 breast = test system: MCF7 breast
MDA-MB-231 breast = test system: MDA-MB-231 breast
MDA-MB-435 = test system: MDA-MB-435
MDA-N = test system: MDA-N
MOLT-4 leukemia = test system: MOLT-4 leukemia
NCI-H226 lung = test system: NCI-H226 lung
NCI-H23 lung = test system: NCI-H23 lung
NCI-H460 lung = test system: NCI-H460 lung
NCI-H522 lung = test system: NCI-H522 lung
NCI/ADR-RES ovarian = test system: NCI/ADR-RES ovarian
OVCAR-3 ovarian = test system: OVCAR-3 ovarian
OVCAR-4 ovarian = test system: OVCAR-4 ovarian
OVCAR-5 ovarian = test system: OVCAR-5 ovarian
OVCAR-8 ovarian = test system: OVCAR-8 ovarian
PC-3 prostate = test system: PC-3 prostate
RPMI-8226 leukemia = test system: RPMI-8226 leukemia
RXF 393 renal = test system: RXF 393 renal
SF-268 CNS = test system: SF-268 CNS
SF-295 CNS = test system: SF-295 CNS
SF-539 CNS = test system: SF-539 CNS
SK-MEL-2 melanoma = test system: SK-MEL-2 melanoma
SK-MEL-28 melanoma = test system: SK-MEL-28 melanoma
SK-MEL-5 melanoma = test system: SK-MEL-5 melanoma
SK-OV-3 ovarian = test system: SK-OV-3 ovarian
SN12C renal = test system: SN12C renal
SNB-19 CNS = test system: SNB-19 CNS
SNB-75 CNS = test system: SNB-75 CNS
SW-620 colon = test system: SW-620 colon
T-47D breast = test system: T-47D breast
TK-10 renal = test system: TK-10 renal
U251 CNS = test system: U251 CNS
UACC-257 melanoma = test system: UACC-257 melanoma
UACC-62 melanoma = test system: UACC-62 melanoma
UO-31 renal = test system: UO-31 renal

Q: For `CN1N=C(c2ccncc2)OC1c1ccc(Cl)cc1Cl` (centres undefined), which TGI (786-0 renal) is on record?
A: > 100 µM

Q: And the TGI (A498 renal)?
A: > 100 µM

Q: And the TGI (A549 NSCLC)?
A: > 100 µM

Q: And the TGI (ACHN renal)?
A: > 100 µM

Q: And the TGI (CCRF-CEM leukemia)?
A: > 100 µM

Q: And the TGI (COLO 205 colon)?
A: > 100 µM

Q: And the TGI (DU-145 prostate)?
A: > 100 µM

Q: And the TGI (EKVX NSCLC)?
A: > 100 µM

Q: And the TGI (HCC-2998 colon)?
A: > 100 µM

Q: What about the TGI (HCT-116 colon) of the same compound?
A: > 100 µM

Q: And the TGI (HCT-15 colon)?
A: > 100 µM

Q: And the TGI (HL-60(TB) leukemia)?
A: > 100 µM

Q: And the TGI (HOP-62 NSCLC)?
A: > 100 µM

Q: And the TGI (HS 578T breast)?
A: > 100 µM

Q: And the TGI (HT29 colon)?
A: > 100 µM

Q: And the TGI (IGROV1 ovarian)?
A: > 100 µM

Q: And the TGI (K-562 leukemia)?
A: > 100 µM

Q: What about the TGI (KM12 colon) of the same compound?
A: > 100 µM

Q: What about the TGI (LOX IMVI melanoma) of the same compound?
A: > 100 µM

Q: What about the TGI (M14 melanoma) of the same compound?
A: > 100 µM

Q: And the TGI (MCF7 breast)?
A: > 100 µM

Q: And the TGI (MDA-MB-231 breast)?
A: > 100 µM

Q: And the TGI (MDA-MB-435)?
A: > 100 µM

Q: And the TGI (MDA-N)?
A: > 100 µM

Q: What about the TGI (MOLT-4 leukemia) of the same compound?
A: > 100 µM

Q: And the TGI (NCI-H226 lung)?
A: 84.2 µM

Q: And the TGI (NCI-H23 lung)?
A: > 100 µM

Q: And the TGI (NCI-H460 lung)?
A: > 100 µM

Q: What about the TGI (NCI-H522 lung) of the same compound?
A: > 100 µM

Q: And the TGI (NCI/ADR-RES ovarian)?
A: > 100 µM

Q: And the TGI (OVCAR-3 ovarian)?
A: > 100 µM

Q: And the TGI (OVCAR-4 ovarian)?
A: > 100 µM

Q: What about the TGI (OVCAR-5 ovarian) of the same compound?
A: > 100 µM

Q: And the TGI (OVCAR-8 ovarian)?
A: > 100 µM

Q: And the TGI (PC-3 prostate)?
A: > 100 µM

Q: What about the TGI (RPMI-8226 leukemia) of the same compound?
A: > 100 µM

Q: And the TGI (RXF 393 renal)?
A: > 100 µM

Q: And the TGI (SF-268 CNS)?
A: > 100 µM

Q: And the TGI (SF-295 CNS)?
A: > 100 µM

Q: What about the TGI (SF-539 CNS) of the same compound?
A: > 100 µM

Q: What about the TGI (SK-MEL-2 melanoma) of the same compound?
A: > 100 µM

Q: And the TGI (SK-MEL-28 melanoma)?
A: > 100 µM

Q: And the TGI (SK-MEL-5 melanoma)?
A: > 100 µM

Q: What about the TGI (SK-OV-3 ovarian) of the same compound?
A: > 100 µM

Q: And the TGI (SN12C renal)?
A: > 100 µM

Q: And the TGI (SNB-19 CNS)?
A: > 100 µM

Q: And the TGI (SNB-75 CNS)?
A: 55.6 µM

Q: And the TGI (SW-620 colon)?
A: > 100 µM

Q: And the TGI (T-47D breast)?
A: > 100 µM

Q: And the TGI (TK-10 renal)?
A: > 100 µM

Q: And the TGI (U251 CNS)?
A: > 100 µM

Q: And the TGI (UACC-257 melanoma)?
A: > 100 µM

Q: And the TGI (UACC-62 melanoma)?
A: 76.5 µM

Q: What about the TGI (UO-31 renal) of the same compound?
A: > 100 µM
